Results on three molecules are retold here after paper PMC10791743, “Selective CK1α degraders exert antiproliferative activity against a broad range of human cancer cell lines” (Nature Communications, 2024).

“And” between values parts separate entries of the source, which are not always exact repeats. Equal values may be shown once. “Also recorded” adds a separate entry of the source.

The subject of series [1] is panel of AML and ALL cell lines. The series can be described thus: CTG viability in a panel of AML and ALL cell lines (Fig. 3a). It is filed as cell-based, human. The note with it: for IC50: replicate values. The protocol:
The primary screen was performed in 384-well format using the CellTiter Glo (CTG) luminescent cell viability assay (Promega) as previously described. […] After overnight incubation at 37 °C in a humidified 5% CO2 incubator, cells were treated with compounds in dose–response format using a Pintool on a Biomek FX^P Laboratory Automation Workstation (Beckman Coulter). […] Luminescence signal was measured using an EnVision plate reader (PerkinElmer).
HD-MB03 cell line was obtained from Drs. Milde, Witt and Deubzer[52]. HD-MB03 and MB004 cells were grown in a neurobasal medium supplemented with glutamine, streptomycin, penicillin, B27, EGF, bFGF, and heparin as previously described. MB002 and MB004 cells were obtained from Dr Yoon-Jae Cho[54]. MB002 cells were cultured in 80% neurobasal medium supplemented with glutamine, streptomycin, penicillin, B27, and 20% conditioned media from previous passages; EGF, bFGF, and heparin were also added to the medium. MHH-CALL4, NALM-16, MHH-CALL-2 cells were obtained from the German Collection of Microorganisms and Cell Cultures GmbH (DSMZ, Germany). PER-117 cells were obtained from Telethon Kids Institute (Perth, Australia). The cells were cultured in RPMI1640 medium supplemented with 10% FBS (Hyclone), Penicillin/Streptomycin (100 units/mL), and Glutamine (100 µM) except for MHH-CALL-2 cells where 20% FBS were used. […] OCI-AML3 cells were purchased from DSMZ (ACC 690) and cultured in Alpha-MEM media (Invitrogen) supplemented with 20% FBS and 100 U/ml penicillin–streptomycin. […] Cell identity was confirmed by STR profiling using PowerPlex® Fusion System (Promega).

A short description of series [2]: Plasma protein binding assay (RED), mouse. It is filed as in vitro ADME. The protocol: page 33: the need for further incubation. Following quenching, all plates were thoroughly mixed at 600 rpm for 10 minutes and centrifuged at 4000 rpm for 20 minutes. Supernatants were transferred to […] MS/MS analysis. Plasma stability was evaluated by determining the half-life through a least-squares fit of multiple time points based on first-order kinetics. Plasma protein binding assay: Test compound stock solutions were prepared at a concentration of 10 mM in DMSO. A Single-Use RED (Rapid Equilibrium Dialysis) device was acquired from Thermo Scientific (Cat. No: 99006, Rockford, IL). The sample preparation for plasma protein binding followed a modified version of Waters' method6. After thawing, plasma was centrifuged at 1000 rpm for 10 minutes to eliminate any particulates. Each compound was then prepared at a concentration of 10 µM in either human or mouse plasma. In the plasma protein binding assessment, 300 µL of spiked plasma solutions were introduced into the sample chamber (indicated by the red ring), while 550 µL of DPBS was added to the adjacent chamber. The plate was sealed and incubated at 37°C on an orbital shaker (100 rpm) for 4 hours. Post -incubation, 50 µL aliquots were withdrawn from each side of the insert and dispensed into a 96 -well storage plate. To create analytically identical sample matrices (matrix matching), an equivalent volume of blank plasma or DPBS was added to the necessary wells, followed by quenching w ith 3-fold (v:v) cold acetonitrile containing warfarin as the internal standard. Subsequently, the sealed plates were well -mixed at 600 rpm for 10 minutes and then centrifuged at 4000 rpm for 20 minutes. Supernatants were transferred to analytical […] Test compound concentrations were quantified in both the buffer and plasma chambers by determining peak areas relative to the internal standard. The percentage of the test compound bound to plasma was calculated using the following equation (4): %Free = (Concentration buffer chamber / concentration plasma chamber) x 100% and equation (5) %Bound = 100% - %Free.

Where [3] appears, read: Homo sapiens, MOLM-13, MOLM-13 cells.
Where [4] appears, read: mouse plasma, single replicates.

A word on the IC50: it is the concentration that inhibits the measured activity by half. `Cc1cccc(C(=O)Nc2ccc3c(c2)CN(C2CCC(=O)NC2=O)C3=O)c1` (stereo not drawn) [SJ0040]: the half-inhibitory concentration (IC50) in series [1] (HNT-34 cells) is 2 nM (2×) and 4.9 nM; in series [1] (Homo sapiens, MHHCALL-2 cells) it was 27 nM; in series [1] (setting [3]), 125 nM; in series [1] (KASUMI-3 cells), 16 nM and 11 nM and 30.2 nM; in series [1] (MHHCALL-4 cells), 67 nM and 73 nM and 17 nM; in series [1] (MOLM-13 cells), 136 nM and 96.2 nM. In addition, the IC50 in series [1] (NALM16 cells) is 130 nM and 16 nM and 25 nM.
One may read the fraction unbound as the share of the substance not bound to proteins or other matrix. With `O=C1CCC(N2Cc3cc(Nc4noc5ccccc45)ccc3C2=O)C(=O)N1` (stereo not drawn) [SJ3149], in series [1] (CTG), the “IC50 values / cytotoxicity in panel of AML and ALL cell lines” value is given as “single digit nanomolar range; also recorded: low nanomolar to sub-nanomolar range”. Further, the IC50 in series [1] (HNT-34 cells) was 1.5 nM; in series [1] (Homo sapiens, HNT-34, HNT-34 cells) it was 1 nM; in series [1] (Homo sapiens, Kasumi-3, KASUMI-3 cells), 118 nM; in series [1] (Homo sapiens, MHHCALL4, MHHCALL-4 cells), 3 nM; in series [1] (Homo sapiens, MHHCALL-2 cells), 2 nM; in series [1] (setting [3]), 8 nM. Also, the IC50 in series [1] (KASUMI-3 cells) is 72 nM and 71.7 nM; in series [1] (MHHCALL-4 cells), 4 nM; in series [1] (MOLM-13 cells), 11 nM and 7.1 nM. The fraction unbound at 4 h, 10 µM in series [2] (mouse, plasma) was 0.038.
On to `O=C1CCC(N2Cc3cc(Nc4noc5ccccc45)ccc3C2=O)C(=O)N1` (stereo not drawn) [SJ001043149-1], for which the “AVG %Bound” value in series [2] (mouse plasma, average of 3 replicates) is recorded as 96.2%. Moreover, in series [2] (setting [4]), the “%Bound” value was 96.641% and 95.489% and 96.3948%; the “%Free” value was 3.359% and 4.511% and 3.605%.
